In general, pIC50 refers to the IC50 on a negative log10 scale, so that one unit is a factor of ten.

Molecules are shown by their SMILES. pIC50: −log10 of the molar value. Activity calls are given as the source filed them. The calls are words filed in the database; no cut-off is given here.

The test system of the first experiment is J774.A1. Briefly: Antiinflammatory activity in mouse J774.A1 cells assessed as inhibition of LPS-induced NO production treated 2 hrs before LPS challenge measured after 20 hrs. The class given is functional, cell-based.
`CC[C@H](C)C(=O)O[C@H]1[C@@]23O[C@]4(O)[C@@](C)([C@@H](CC(=O)OC)C(C)(C)[C@H](OC(=O)C(C)C)[C@]14O)[C@H]2CC[C@]1(C)[C@H]3CC(=O)O[C@H]1c1ccoc1`: the negative-log IC50 (pIC50) is 4.61.

As for `COc1ccc2c(c1)c(CC(=O)O)c(C)n2C(=O)c1ccc(Cl)cc1` [INDOMETHACIN], the negative-log IC50 (pIC50) was 4.54.

Consider `CC[C@H](C)C(=O)O[C@H]1C(C)(C)[C@H](CC(=O)OC)[C@@]2(C)[C@H]3CC[C@]4(C)C(=CC(=O)O[C@H]4c4ccoc4)[C@]34O[C@@]2(O)[C@@]1(O)[C@H]4OC(=O)[C@@H](C)CC`, for which the negative-log IC50 (pIC50) is 4.50.

A further experiment has as its system J774.A1. Put plainly: Antiinflammatory activity in mouse J774.A1 cells assessed as inhibition of LPS-induced NO production at 50 uM treated 2 hrs before LPS challenge measured after 20 hrs. In kind it is functional, cell-based.
On to `COC(=O)C[C@H]1[C@]2(C)C[C@@]34OC5(C)O[C@]6([C@@H]7[C@H](O)C(=O)O[C@@H](c8ccoc8)[C@]7(C)CC[C@]6(O5)[C@]13C)[C@H](OC(C)=O)[C@@]4(OC(C)=O)[C@H]2OC(C)=O`, for which the inhibition entry is “inactive”.

For the compound `CC[C@H](C)C(=O)O[C@@H]1[C@H]2[C@@H](OC(=O)C(C)C)C(C)(C)[C@H](CC(=O)OC)[C@@]3(C)[C@H]4CC[C@]5(C)[C@@H](CC(=O)O[C@H]5c5ccoc5)[C@@]14O[C@@]23O`, the inhibition result was “inactive”.

Regarding `COC(=O)C[C@H]1C(C)(C)[C@H](OC(=O)C(C)C)[C@@H]2[C@@H](OC(=O)C(C)C)[C@@]34O[C@]2(O)[C@]1(C)[C@H]3CC[C@]1(C)[C@H]4CC(=O)O[C@H]1c1ccoc1`, the inhibition entry was “inactive”.

On to `CC[C@H](C)C(=O)O[C@H]1C(C)(C)[C@H](CC(=O)OC)[C@@]2(C)[C@H]3CC[C@]4(C)[C@@H](CC(=O)O[C@H]4c4ccoc4)[C@]34O[C@@]2(O)[C@@]1(O)[C@H]4OC(=O)[C@@H](C)CC`, for which the inhibition entry was “inactive”.

On to `CC[C@H](C)C(=O)O[C@H]1C(C)(C)[C@H](CC(=O)OC)[C@@]2(C)[C@H]3CC[C@]4(C)C(=CC(=O)O[C@H]4c4ccoc4)[C@]34O[C@@]2(O)[C@@]1(O)[C@H]4OC(=O)C(C)C`, for which the inhibition result was “inactive”.

Regarding `COC(=O)C[C@H]1C(C)(C)[C@H](OC(C)=O)[C@]2(O)[C@@H](OC(=O)C(C)C)[C@@]34O[C@]2(O)[C@]1(C)[C@H]3CC[C@]1(C)[C@H]4CC(=O)O[C@H]1c1ccoc1`, the inhibition result was “inactive”.
